Reference: patent US6225478A, “Iridoid derivatives and neovascularization inhibitors containing the same as active ingredient” (Tsumura & Co., priority 1999, dated 2001)
In brackets after ≈: the same amount, converted by molar mass.

Tests used:
Format in all cases: cell-based
[1] = tested on: human umbilical-vein endothelial cells (HUVEC); experiment: Tube Formation Assay (TFA) Test, HUVEC in collagen gel; details: Homo sapiens, HUVEC, 20 h, 20 hours, 40% or less judged remarkable, read-out: TFA (inhibition rate, %); for inhibition at 1 µg/mL: 1 μg/ml; for inhibition at 10 µg/mL: 10 μg/ml
Outline: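 Inhibition rate (%) of tube formation is computed from tube lengths against control (+) and control (-), measured after 20 h at 37 °C in M-199 with 20% FCS, 30 ng/ml b-FGF and 0.1 μM PMA. Samples were applied to HUVEC on collagen and covered by a second collagen layer (double-layer gel).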

[2] = tested on: human umbilical-vein endothelial cells (HUVEC); experiment: Cell Proliferation Assay (CPA) Test, HUVEC, MTT; details: Homo sapiens, M199 (2+) medium, read-out: CPA (IC50 μg/ml)
Method: (§1) Furthermore, the sample liquids of compounds used in the CPA and CMA tests were prepared in the manner described below. Firstly, after weighing out each compound, a calculated amount of DMSO was added. After dissolving the compound in the DMSO, phosphate buffered physiological saline (PBS (-)) was added to bring the sample concentration to 1 mg/ml in PBS (-). The amount of DMSO used to dissolve the compounds was adjusted in advance to that the concentration of DMSO at that time was 5%. The resulting liquids were diluted 10-fold with 5% DMSO-PBS (-) solution to prepare sample solutions having a concentration of 0.1 mg/ml. In the TFA test, 320 μl of the prepared 1 mg/ml sample solutions were removed followed by addition of 680 μl of PBS (-) to prepare samples having a concentration of […]. Moreover, 100 μl of this solution was removed followed by addition of 900 μl of PBS (-) to dilute 10-fold and prepare samples having a concentration of 1 μg/ml. P [Cell Proliferation Assay (CPA) Test]
100 μl of the 7th subculture obtained from first generation human umbilical-vein endothelial cells (HUVEC) were disseminated in the wells (N=3) of a 96-well plate (Iwaki, Cat. #4860-010) at a cell concentration of 5×10^4 cells/ml. M-199 medium containing +20% FCS, 10 ng/ml of b-FGF and 10 ng/ml of EGF (abbreviated as "M199 (2+)") was used for the medium.
After culturing for 24 hours at 37° C. in the presence of 5% CO2 under the above conditions, 20 μl/well of MTT solution (solution containing 5 mg/ml of PBS (-)) were added to the control well followed by accurately culturing for 4 hours at 37° C. in the presence of 5% CO2. Following completion of culturing, 100 μl/well of a stop solution (0.001 N aqueous HCl solution containing 10% SDS) were added. On the other hand, 10 μl/well of sample solutions at concentrations of 1 mg/ml and 0.1 mg/ml were added to the other wells.
After culturing for 24 hours at 37° C. in the presence of 5% CO2, the medium was replaced and 100 μl/well of M199 (2+) were added. The samples were also replaced in each well at this time.
Moreover, after additionally culturing for 48 hours at 37° C. in the presence of 5% CO2, 20 μl/well of MTT solution were added to the wells containing sample and the control well followed by accurately culturing for 4 hours at 37° C. and adding 100 μl/well of stop solution.

[3] = tested on: human umbilical-vein endothelial cells (HUVEC); experiment: Cell Migration Assay (CMA) Test, HUVEC (% relative to control); details: Homo sapiens, HUVEC, 24 hours, 60% or less = remarkable inhibition, read-out: CMA (% relative to control); for activity at 1 µg/mL: 1 μg/ml; for activity at 10 µg/mL: 10 μg/ml
Method: as §1
After disseminating the 7th subculture of HUVEC obtained from the first generation in the same manner as above at 4 ml/well (3.0×10^5 cells/well) in a collagen-coated 6-well plate (NUNC), the cells were cultured for 48 hours at 37° C. in the presence of 5% CO2. The cells reached nearly a completely confluent state as a result of this culturing.
A double-edged, disposable razor blade was divided into four sections, of which one of those sections was pinched between a pair of forceps. Using this piece of razor blade, the cell surface in the above confluent state was scraped off. Two areas of the cell surface were scraped off in each well.
After washing the surface of the wells from which the cells had been scraped off with medium, 4.0 ml of fresh M199 (2+) medium were added followed by addition of 40 μl or 4 μl of sample solution (1 mg/ml). The cells were cultured for 24 hours at 37° C. in the presence of 5% CO2. After discarding the culture liquid, the cells were fixed for 30 minutes with methanol. Next, after staining the cells for 4 hours with Giemsa stain, the plates were washed with tap water and air dried.
Measurement of cell migration was performed by microscopically counting the number of cells that had newly migrated within the range of a 1 mm×1 mm block. […] The total number of cells counted in blocks 1 through 5 were then totaled to determine the overall total number of cells. Four fields were counted for each well.
Evaluation was performed determining the cell migration (%) according to the following formula.
Cell migration rate=number of migrating cells to which sample was added×100/number of migrating of control (+)
Control (+) indicates the number of migrating cells in the control well containing M199 (2+).

SMILES | inhibition at 1 µg/mL [1] | inhibition at 10 µg/mL [1] | IC50 [2] | activity at 1 µg/mL [3] | activity at 10 µg/mL [3]
CNC(=O)O[C@@H]1OCC(C(=O)OC)[C@H]2C[C@@H]3O[C@]3(C)C12 (stereo in doubt) [Compound 55, (1S,4R,4aS,6S,7R,7aR)-6,7-epoxy-7-methyl-1-(methylcarbamoyloxy)-1,3,4,4a,5,6,7,7a-octahydrocyclopenta [c] pyrane-4-carboxylic acid methylester] | 13.9% | 3.8% | > 100 µg/mL | 97.8% | 91.8%
CNC(=O)O[C@@H]1OC=C(C(=O)OC)[C@H]2C[C@H]3O[C@@]3(C)C12 (stereo in doubt) [Compound 57, (1S,4aS,6R,7S,7aR)-6,7-epoxy-7-methyl-1-(methylcarbamoyloxy)-1,4a,5,6,7,7a-hexahydrocyclopenta [c] pyrane-4-carboxylic acid methylester] | 17.7% | 13.5% | > 100 µg/mL | 96% | 93%
COC(=O)C1=CO[C@H](OC(=O)NC(=O)c2ccccc2)C2[C@@H]1C[C@@H]1O[C@]21C (stereo in doubt) [compound 42, (1R,4aS,6S,7R,7aR)-1-(benzoylcarbamoyloxy)-6,7-epoxy-1,4a,5,6,7,7a-hexahydro-7-methylcyclopenta [c] pyrane-4-carboxylic acid methylester] | 12.5% | 18.7% | > 100 µg/mL | 90.4% | 70.6%
CNC(=O)O[C@@H]1OC=C(C(=O)OC)[C@H]2C[C@@H]3OC3(COC(=O)OC)C12 (stereo in doubt) [compound 47, (1S,4aS,6S,7R,7aR)-6,7-epoxy-7-(methoxycarbonyloxymethyl)-1-(methylcarbamoyloxy)-1,4a,5,6,7,7a-hexahydrocyclopenta [c] pyrane-4-carboxylic acid methylester] | -27.3% | 2.6% | > 100 µg/mL | 95.9% | 60.5%
CNC(=O)OCC12O[C@H]1C[C@@H]1C(C(=O)OC)=CO[C@@H](OC(=O)NC)C12 (stereo in doubt) [compound 48, (1S,4aS,6S,7R,7aR)-6,7-epoxy-1-(methylcarbamoyloxy)-7-(methylcarbamoyloxymethyl)-1,4a,5,6,7,7a-hexahydrocyclopenta [c] pyrane-4-carboxylic acid methylester] | 51.5% | 54.1% | > 100 µg/mL | 93.3% | 107%
CNC(=O)O[C@@H]1OC=C(C(=O)OC)[C@H]2C[C@@H]3OC3(COC)C12 (stereo in doubt) [compound 49, (1S,4aS,6S,7R,7aR)-6,7-epoxy-7-(methoxymethyl)-1-(methylcarbamoyloxy)-1,4a,5,6,7,7a-hexahydrocyclopenta [c] pyrane-4-carboxylic acid methylester] | 21.2% | 12.8% | > 100 µg/mL | 102% | 104%
CO[C@@H]1[C@H](OC(=O)/C=C/C=C/C=C/C=C/C(=O)O)CC[C@]2(CO2)[C@H]1[C@@]1(C)O[C@@H]1CC=C(C)C [Fumagilline, reference compound] |  |  | 33.3 µg/mL (≈ 72.6 µM) | 95.5% | 74.2%
CCCCCCNC(=O)O[C@@H]1OC=C(C(=O)OC)[C@H]2C[C@@H]3O[C@]3(C)[C@H]12 [compound 33, (1S,4aS,6S,7R,7aR)-6,7-epoxy-1-(n-hexylcarbamoyloxy)-1,4a,5,6,7,7a-hexahydro-7-methylcyclopenta [c] pyrane-4-carboxylic acid methylester] |  |  | > 100 µg/mL | 109% | 102%
